≈ marks a conversion by molar mass, not a printed value. Like-named read-outs stand apart in the source and are kept apart here. Where only a bound is given, the exact number is not on record here.

For experiment [1], the system named is Candida albicans 3669. As to the kind of experiment: plate test procedure for anti-Candida activity, strain 3669. It counts as cell-based. As to the method:
(§1) Immunosuppressive activity was evaluated in an in vitro standard pharmacological test procedure to measure lymphocyte proliferation (LAF) and in an in vivo procedure to evaluate the survival time of a pinch skin graft. Antifungal activity was determined against five strains of Candida albicans.
(§2) Antifungal activity of the compounds of this invention is measured against 5 strains of Candida albicans using a plate test procedure for measurement of inhibition. The following represents the typical procedure used. The compound to be tested is placed on sterile dried 1/4" plate disks, and allowed to dry. Agar plates are seeded with fungi and allowed to solidify. The impregnated disks are placed on the seeded Agar surface and incubated for the time required for the particular culture. Results shown in Table II are expressed in Minimum Inhibitory Concentration (MIC) (μg/ml) to inhibit growth.

Experiment [2] deals with thymocyte proliferation (lymphocyte proliferation, LAF). As to the kind of experiment: comitogen-induced thymocyte proliferation procedure (LAF). It counts as cell-based, normal BALB/c mice. Particulars: Mus musculus, 72 h, mouse thymocytes, 72 hours with PHA and IL-1, test compound (Analogs). As to the method: as §1
(§3) Immunosuppressive activity was evaluated in an in vitro standard pharmacological test procedure to measure lymphocyte proliferation (LAF) and in one in vivo standard pharmacological test procedure to evaluate the survival time of a pinch skin graft.
The comitogen-induced thymocyte proliferation procedure (LAF) was used as an in vitro measure of the immunosuppressive effects of representative compounds. Briefly, cells from the thymus of normal BALB/c mice were cultured for 72 hours with PHA and IL-1 and pulsed with tritiated thymidine during the last six hours. Cell are cultured with and without various concentrations of rapamycin, cyclosporin A, or test compound. Cells are harvested and incorporated; radiactivity is determined. Inhibition of lymphoproliferation is assessed in percent change in counts per minute from non-drug treated controls. The results are expressed by the following ratio: [formula] or as percent inhibition or IC50.

For experiment [3], the system named is Candida albicans ATCC 10231. As to the kind of experiment: plate test procedure for anti-Candida activity, strain ATCC 10231. It counts as cell-based. The protocol:
as §1, §2

For experiment [4], the system named is Candida albicans ATCC 38248. As to the kind of experiment: plate test procedure for anti-Candida activity, strain ATCC 38248. It counts as cell-based. The protocol:
as §1, §2

Experiment [5] has as its system pinch skin graft (allograft). In words: in vivo pinch skin graft survival (Skin Graft Model). More on the design: species or system mice: male BALB/c donors, male C3 H recipients. The conditions noted are these: intraperitoneally once daily for 6 consecutive days; mean ± S.D.; dose not given. As to the method: as §1, §3
The in vivo test procedure is designed to determine the survival time of pinch skin graft from male BALB/c donors transplanted to male C3 H recipients. The method is adapted from Billingham R. E. and Medawar P. B., J. Exp. Biol. 28:385-402, (1951). Briefly, a pinch skin graft from the donor is grafted on the dorsum of the recipient as a allograft, and an isograft is used as control in the same region. The recipients are treated with the test compound, intraperitoneally once daily for 6 consecutive days. Untreated recipients serve as rejection control. The graft is monitored daily and observations are recorded until the graft becomes 95% area necrosis or the suture line is off. This is considered as the rejection day. The graft survival time is one day before the rejection day. The mean graft survival time (number of days ±S.D.) of the drug treatment group is compared with the control group.

The subject of experiment [6] is Candida albicans ATCC 38247. In words: plate test procedure for anti-Candida activity, strain ATCC 38247. It counts as cell-based. The protocol: as §1, §2
Experiment [7] relates to Candida albicans ATCC 38246. As to the kind of experiment: plate test procedure for anti-Candida activity, strain ATCC 38246. It counts as cell-based. As to the method:
as §1, §2

Experiment [8] relates to transplant rejection. The conditions noted are these: cited from earlier work.
Experiment [9] concerns tumor. Particulars: alone or in combination with picibanil; cited from earlier work.
The subject of experiment [10] is formation of IgE-like antibodies. Particulars: in vivo; cited from earlier work.
For experiment [11], the system named is adjuvant arthritis model, a model for rheumatoid arthritis. Particulars: in vivo; cited from earlier work.
Experiment [12] relates to experimental allergic encephalomyelitis model, a model for multiple sclerosis. The conditions noted are these: in vivo; cited from earlier work.
The test system of experiment [13] is Candida albicans. The conditions noted are these: in vitro and in vivo; cited from earlier work.
Experiment [14] has as its system fungi. Particulars: cited from earlier work.
The mark [15] stands for this setting: Candida albicans 3669, plate test, read-out: Minimal Inhibitory Concentration (MIC), 3669.
[16] abbreviates: ATCC10231, Candida albicans ATCC 10231, plate test, read-out: Minimal Inhibitory Concentration (MIC), ATCC 10231.
The mark [17] stands for this setting: ATCC38248, Candida albicans ATCC 38248, plate test, read-out: Minimal Inhibitory Concentration (MIC), ATCC 38248.
Where [18] appears, read: ATCC38247, Candida albicans ATCC 38247, plate test, read-out: Minimal Inhibitory Concentration (MIC), ATCC 38247.
Where [19] appears, read: ATCC38246, Candida albicans ATCC 38246, plate test, read-out: Minimal Inhibitory Concentration (MIC), ATCC 38246.

Consider `CO[C@H]1C[C@@H]2CC[C@@H](C)[C@@](O)(O2)C(=O)C(=O)N2CCCC[C@H]2C(=O)O[C@H]([C@H](C)C[C@@H]2CC[C@@H](OC(=O)NC(=O)c3ccccc3)[C@H](OC)C2)CC(=O)[C@H](C)/C=C(\C)[C@@H](OC(=O)CN(C)C)[C@@H](OC)C(=O)[C@H](C)C[C@H](C)/C=C/C=C/C=C/1C` [Example 2, Rapamycin 31-ester with N,N-dimethylglycine, 42-ester with benzoylcarbamic acid], for which the MIC came out at 0.4 µg/mL (≈ 0.349 µM) in experiment [1] (setting [15]); 0.1 µg/mL (≈ 0.0872 µM) in [3] (setting [16]); 0.4 µg/mL (≈ 0.349 µM) in experiment [4] (setting [17]); 0.1 µg/mL (≈ 0.0872 µM) in [6] (setting [18]); 0.4 µg/mL (≈ 0.349 µM) in [7] (setting [19]). The compound also yielded an IC50 in experiment [2] of 4.8 nM. In addition, in experiment [5], the “Skin Graft Model (Survival time days)” value is reported as 10.4 ± 0.55 days.
As to `COC(=O)NC(=O)O[C@@H]1CC[C@@H](C[C@@H](C)[C@@H]2CC(=O)[C@H](C)/C=C(\C)[C@@H](O)[C@@H](OC)C(=O)[C@H](C)C[C@H](C)/C=C/C=C/C=C(\C)[C@@H](OC)C[C@@H]3CC[C@@H](C)[C@@](O)(O3)C(=O)C(=O)N3CCCC[C@H]3C(=O)O2)C[C@H]1OC` [Example 4, Rapamycin 42-ester with N-methoxycarbonylcarbamic acid], the MIC in experiment [1] (setting [15]) was 0.2 µg/mL (≈ 0.197 µM); in experiment [3] (setting [16]), 0.05 µg/mL (≈ 0.0492 µM); in experiment [4] (setting [17]), 0.1 µg/mL (≈ 0.0985 µM); in [6] (setting [18]), 0.05 µg/mL (≈ 0.0492 µM); in experiment [7] (setting [19]) it was 0.2 µg/mL (≈ 0.197 µM). In addition, the IC50 in [2] amounted to 2.7 nM. Also, in experiment [5], the “Skin Graft Model (Survival time days)” value is reported as 10.33 ± 0.52 days.
In [2], `CO[C@H]1C[C@@H]2CC[C@@H](C)[C@@](O)(O2)C(=O)C(=O)N2CCCC[C@H]2C(=O)O[C@H]([C@H](C)C[C@@H]2CC[C@@H](OC(=O)NC(=O)c3ccccc3)[C@H](OC)C2)CC(=O)[C@H](C)/C=C(\C)[C@@H](OC(=O)NC(=O)c2ccccc2)[C@@H](OC)C(=O)[C@H](C)C[C@H](C)/C=C/C=C/C=C/1C` [Example 3, Rapamycin 31,42 diester with benzoylcarbamic acid] showed an IC50 of 1.2 nM.
Take Cyclosporin A: the “inhibition of transplant rejection / immunosuppressive effect” value in experiment [8] is “effective as immunosuppressive agents”.
Take `CO[C@H]1C[C@@H]2CC[C@@H](C)[C@@](O)(O2)C(=O)C(=O)N2CCCC[C@H]2C(=O)O[C@H]([C@H](C)C[C@@H]2CC[C@@H](O)[C@H](OC)C2)CC(=O)[C@H](C)/C=C(\C)[C@@H](O)[C@@H](OC)C(=O)[C@H](C)C[C@H](C)/C=C/C=C/C=C/1C` [Rapamycin]: the MIC in experiment [1] (Candida albicans, 3669, read-out: Minimal Inhibitory Concentration (MIC), 3669) stood at 0.025 µg/mL (≈ 0.0273 µM); in experiment [3] (Candida albicans, ATCC10231, read-out: Minimal Inhibitory Concentration (MIC), ATCC 10231), 0.003 µg/mL (≈ 0.00328 µM); in experiment [4] (Candida albicans, ATCC38248, read-out: Minimal Inhibitory Concentration (MIC), ATCC 38248), 0.006 µg/mL (≈ 0.00656 µM); in experiment [6] (Candida albicans, ATCC38247, read-out: Minimal Inhibitory Concentration (MIC), ATCC 38247), 0.003 µg/mL (≈ 0.00328 µM); in experiment [7] (Candida albicans, ATCC38246, read-out: Minimal Inhibitory Concentration (MIC), ATCC 38246), 0.025 µg/mL (≈ 0.0273 µM). In [9], the antitumor activity result is given as “shown to have antitumor activity”. Further, in experiment [10], the “inhibition of formation of IgE-like antibodies” value is “effectively inhibited the formation of IgE-like antibodies”. In addition, the “inhibition of transplant rejection / immunosuppressive effect” value in experiment [8] is “effective in inhibiting transplant rejection”. Also, the “effect in adjuvant arthritis model” value in experiment [11] is “effective”. Also, in experiment [12], the “effect in experimental allergic encephalomyelitis model” value is recorded as “effective”. Further, the antifungal activity result in experiment [13] is “antifungal activity, particularly against Candida albicans, both in vitro and in vivo”. In addition, the “Skin Graft Model (Survival time days)” value in experiment [5] is listed as over 12.0 days.
For `CO[C@H]1C[C@@H]2CC[C@@H](C)[C@@](O)(O2)C(=O)C(=O)N2CCCC[C@H]2C(=O)O[C@H]([C@H](C)C[C@@H]2CC[C@@H](OC(=O)NC(=O)c3ccccc3)[C@H](OC)C2)CC(=O)[C@H](C)/C=C(\C)[C@@H](O)[C@@H](OC)C(=O)[C@H](C)C[C@H](C)/C=C/C=C/C=C/1C` [Example 1, Rapamycin 42-ester with benzoylcarbamic acid], the MIC in experiment [1] (setting [15]) turned out to be 0.1 µg/mL (≈ 0.0942 µM); in experiment [3] (setting [16]), 0.05 µg/mL (≈ 0.0471 µM); in [4] (setting [17]), 0.1 µg/mL (≈ 0.0942 µM); in experiment [6] (setting [18]), 0.05 µg/mL (≈ 0.0471 µM); in experiment [7] (setting [19]) it was 0.1 µg/mL (≈ 0.0942 µM). Also, in experiment [2], the IC50 worked out at 1.4 nM. For the same compound, the “Skin Graft Model (Survival time days)” value in experiment [5] worked out at 10.5 ± 0.55 days.
For the compound 33-desmethylrapamycin, the “antifungal and immunosuppressant activities” value in [14] is “antifungal and immunosuppressant activities”.
Consider `C=CC[C@@H]1/C=C(\C)C[C@H](C)C[C@H](OC)[C@H]2O[C@@](O)(C(=O)C(=O)N3CCCC[C@H]3C(=O)O[C@H](/C(C)=C/[C@@H]3CC[C@@H](O)[C@H](OC)C3)[C@H](C)[C@@H](O)CC1=O)[C@H](C)C[C@@H]2OC` [FK-506], for which, in [8], the “inhibition of transplant rejection / immunosuppressive effect” value is recorded as “effective as immunosuppressive agents”.

A word on the IC50: it is the concentration that inhibits the measured activity by half. Read a low IC50 as higher potency.

The values above are taken from patent US5262423A, “Rapamycin arylcarbonyl and alkoxycarbonyl carbamates as immunosuppressive and antifungal agents” (American Home Products Corporation, priority 1992, dated 1993).
